Measurements taken from PMC10326263 (Acta Pharmaceutica Sinica. B, 2023).
Entries after “also recorded” stand apart in the source; their conditions may differ.

How the values were obtained:
[1] = In vivo pharmacokinetics study in rats; conditions: male, Sprague-Dawley, rat, plasma
[2] = tested on: HIV-1 mutant strain RES056 (K103N + Y181C); assay: microbe, parasite or virus in culture; assay type: cell-based; conditions: Human immunodeficiency virus 1, MT4, read-out: EC50 RES056
[3] = tested on: HIV-1 mutant strain Y181C; assay: microbe, parasite or virus in culture; assay type: cell-based; conditions: Human immunodeficiency virus 1, MT4, read-out: EC50 Y181C
[4] = tested on: HIV-1 mutant strain F227L + V106A; assay: microbe, parasite or virus in culture; assay type: cell-based; conditions: Human immunodeficiency virus 1, MT4, read-out: EC50 F227L + V106A
SPF Kunming mice [5] = assay: Acute toxicity experiment in mice; assay type: in vivo; conditions: 7 days
HIV-1 WT strain (IIIB) = assay: Anti-HIV activity against WT HIV-1
[6] = tested on: HIV-1 mutant strain Y188L; assay: microbe, parasite or virus in culture; assay type: cell-based; conditions: Human immunodeficiency virus 1, MT4, read-out: EC50 Y188L
[7] = Cytotoxicity in mock-infected MT-4 cells, MTT method; assay type: cell-based; conditions: human, mock-infected MT-4 cells, CC50, mock-infected MT-4 cells
MT-4 cells = assay: as above; assay type: cell-based
[8] = tested on: HIV-1 mutant strain E138K; assay: microbe, parasite or virus in culture; assay type: cell-based; conditions: Human immunodeficiency virus 1, MT4, read-out: EC50 E138K
[9] = tested on: HIV-1 mutant strain L100I; assay: microbe, parasite or virus in culture; assay type: cell-based; conditions: Human immunodeficiency virus 1, MT4, read-out: EC50 L100I
[10] = tested on: HIV-1 mutant strain K103N; assay: microbe, parasite or virus in culture; assay type: cell-based; conditions: Human immunodeficiency virus 1, MT4, read-out: EC50 K103N
SPF Kunming mice [11] = assay: Subacute toxicity experiment in mice; assay type: in vivo

In the case of `Cc1cc(C)cc(S(=O)(=O)c2c(C(=O)NCCCCNS(=O)(=O)c3cccnc3)[nH]c3ccc(Cl)cc23)c1` [R10L4, 5-Chloro-3-((3,5-dimethylphenyl)sulfonyl)-N-(4-(pyridine-3-sulfonamido)butyl)-1H-indole-2-carboxamide], the AUC(0-inf) ([1]; iv, 2 mg/kg) is reported as 481 ± 63.3 ng·h/mL, the AUC(0-t) ([1]; iv, 2 mg/kg) is reported as 472 ± 63.4 ng·h/mL and the MRT inf ([1]; iv, 2 mg/kg) is reported as 1.45 ± 0.09 h. The Tmax ([1]; iv, 2 mg/kg) was 0.083 h, the clearance ([1]; iv, 2 mg/kg) was 70.2 mL/min/kg and the half-life ([1]; iv, 2 mg/kg) was 1.61 ± 0.04 h. For the same compound, the Cmax ([1]; iv, 2 mg/kg, i.v. 2 mg/kg) was 657 ± 99.2 ng/mL, the bioavailability ([1]; oral, 10 mg/kg) was 8.5% and the AUC(0-inf) ([1]; po, 10 mg/kg) was 203 ± 38.4 ng·h/mL. The AUC(0-t) ([1]; po, 10 mg/kg) was 199 ± 38.7 ng·h/mL, the MRT inf ([1]; po, 10 mg/kg) was 2.27 ± 0.05 h and the Tmax ([1]; po, 10 mg/kg) was 0.83 ± 0.15 h. It also gave a half-life ([1]; po, 10 mg/kg) of 1.78 ± 0.25 h, a Cmax ([1]; po, 10 mg/kg, p.o. 10 mg/kg) of at most 80 ng/mL and an EC50 [2] of 5260 nM. For the same compound, the EC50 [3] was 45 ± 10 nM, the EC50 [4] was 87 ± 35 nM and the “mortality or behavior changes, acute toxicity” value (SPF Kunming mice [5]; 800 mg/kg intragastric) was “no remarkable in vivo toxic effects; also recorded: did not lead to any mortality or observable behavior changes”. For the same compound, the “body weight, acute toxicity” value (SPF Kunming mice [5]; 800 mg/kg, compared with blank group) was “only insignificant body weight loss was seen”, the “selectivity index, times higher than that of IAS-0” value (HIV-1 WT strain (IIIB); WT HIV-1) was about 14 times and the “SI IIIB (CC50/EC50 ratio)” value (HIV-1 WT strain (IIIB); WT HIV-1 IIIB) was 30,930. For the same compound, the EC50 [6] was 540 ± 87 nM, the CC50 at 5 days [7] was 216000 nM and the “fold decrease in cytotoxicity compared to IAS-0” value (MT-4 cells; CC50, MT-4 cells) was about 40 fold. It also gave a CC50 (MT-4 cells; mock-infected MT-4 cells) of 216500 ± 520 nM, an EC50 [8] of 17 ± 7 nM and an EC50 [9] of 17 ± 2 nM. For the same compound, the EC50 [10] was 68 ± 12 nM, the “mortality or behavior changes, subacute toxicity” value (SPF Kunming mice [11]; 50 mg/kg p.o., 12 days) was “no remarkable in vivo toxic effects; also recorded: did not lead to any mortality or observable behavior changes” and the “body weight, subacute toxicity” value (SPF Kunming mice [11]; 50 mg/kg, 12 days, compared with blank group) was “only insignificant body weight loss was seen”. The “pathology of hematoxylin and eosin-stained slices from vital organs” value (SPF Kunming mice [11]; end of subacute toxicity test, heart, liver, spleen, lung, kidney) was “no marked pathological abnormalities”.
